Laboratory results published in the supplement of paper PMC11451515.

System: P12-Ichikawa
Test: cell viability relative to DMSO control; higher = less cytotoxic
Conditions: 48 h
Procedure, shortened: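 NOMO1 or SEM (500 cells/well) or P12-Ichikawa (1000 cells/well) leukemia cells were adapted for at least four passages in each medium. They were seeded in 1536-well plates (5 μl) and pin-dosed with library compounds in DMSO over an 11-point threefold series, 47 μM to 0.79 nM. CellTiter-Glo One luminescence was read after 48 h at 37°C. Viability is the per-plate percentage relative to DMSO wells, with cell-free wells as background.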

[1] = RPMI 5 mM glucose + 10% dialyzed FBS, 0.000781 µM
[2] = RPMI 5 mM glucose + 10% dialyzed FBS, 0.00234 µM
[3] = RPMI 5 mM glucose + 10% dialyzed FBS, 0.00702 µM
[4] = RPMI 5 mM glucose + 10% dialyzed FBS, 0.0211 µM
[5] = RPMI 5 mM glucose + 10% dialyzed FBS, 0.0632 µM
[6] = RPMI 5 mM glucose + 10% dialyzed FBS, 0.19 µM
[7] = RPMI 5 mM glucose + 10% dialyzed FBS, 0.569 µM
[8] = RPMI 5 mM glucose + 10% dialyzed FBS, 1.71 µM
[9] = RPMI 5 mM glucose + 10% dialyzed FBS, 5.12 µM
[10] = RPMI 5 mM glucose + 10% dialyzed FBS, 15.4 µM
[11] = RPMI 5 mM glucose + 10% dialyzed FBS, 46.1 µM
[12] = HPLM + 10% dialyzed FBS, 0.000781 µM
[13] = HPLM + 10% dialyzed FBS, 0.00234 µM
[14] = HPLM + 10% dialyzed FBS, 0.00702 µM
[15] = HPLM + 10% dialyzed FBS, 0.0211 µM
[16] = HPLM + 10% dialyzed FBS, 0.0632 µM
[17] = HPLM + 10% dialyzed FBS, 0.19 µM
[18] = HPLM + 10% dialyzed FBS, 0.569 µM
[19] = HPLM + 10% dialyzed FBS, 1.71 µM
[20] = HPLM + 10% dialyzed FBS, 5.12 µM
[21] = HPLM + 10% dialyzed FBS, 15.4 µM
[22] = HPLM + 10% dialyzed FBS, 46.1 µM
[23] = RPMI 5 mM glucose + 10% FBS, 0.000781 µM
[24] = RPMI 5 mM glucose + 10% FBS, 0.00234 µM
[25] = RPMI 5 mM glucose + 10% FBS, 0.00702 µM
[26] = RPMI 5 mM glucose + 10% FBS, 0.0211 µM
[27] = RPMI 5 mM glucose + 10% FBS, 0.0632 µM
[28] = RPMI 5 mM glucose + 10% FBS, 0.19 µM
[29] = RPMI 5 mM glucose + 10% FBS, 0.569 µM
[30] = RPMI 5 mM glucose + 10% FBS, 1.71 µM
[31] = RPMI 5 mM glucose + 10% FBS, 5.12 µM
[32] = RPMI 5 mM glucose + 10% FBS, 15.4 µM
[33] = RPMI 5 mM glucose + 10% FBS, 46.1 µM

Compound | cell viability [1] [%] | cell viability [2] [%] | cell viability [3] [%] | cell viability [4] [%] | cell viability [5] [%] | cell viability [6] [%] | cell viability [7] [%] | cell viability [8] [%] | cell viability [9] [%] | cell viability [10] [%] | cell viability [11] [%] | cell viability [12] [%] | cell viability [13] [%] | cell viability [14] [%] | cell viability [15] [%] | cell viability [16] [%] | cell viability [17] [%] | cell viability [18] [%] | cell viability [19] [%] | cell viability [20] [%] | cell viability [21] [%] | cell viability [22] [%] | cell viability [23] [%] | cell viability [24] [%] | cell viability [25] [%] | cell viability [26] [%] | cell viability [27] [%] | cell viability [28] [%] | cell viability [29] [%] | cell viability [30] [%] | cell viability [31] [%] | cell viability [32] [%] | cell viability [33] [%]
COC1=CC=C2CN(C)CC[C@@]34\C=C/[C@H](O)C[C@@H]3OC1=C24 | 121 | 124 | 118 | 117 | 130 | 120 | 119 | 121 | 82.6 | 102 | 111 |  |  |  |  |  |  |  |  |  |  |  |  |  |  |  |  |  |  |  |  |  | 
Cc1ncc([N+](=O)[O-])n1CC(C)O (stereo unspecified) | 102 | 112 | 106 | 104 | 95.2 | 112 | 117 | 113 | 111 | 106 | 106 | 105 | 116 | 111 | 110 | 105 | 117 | 114 | 111 | 116 | 125 | 103 | 94.3 | 109 | 101 | 104 | 90.4 | 113 | 105 | 115 | 104 | 106 | 102
O=C1NC(=O)/C(=C/c2ccc(-c3ccc(F)cc3O)o2)S1 | 115 | 120 | 121 | 117 | 117 | 121 | 117 | 88.2 | 89.5 | 84.3 | 72.4 | 113 | 117 | 116 | 121 | 112 | 116 | 108 | 107 | 97.7 | 97.9 | 89.7 | 116 | 117 | 112 | 112 | 112 | 111 | 102 | 90.4 | 90.1 | 80 | 65.7
OC1=CC2=C(C(=C1)O)C(=O)\C(=C(/O2)C3=CC(=C(O)C=C3)O)O | 107 | 108 | 113 | 103 | 117 | 100 | 117 | 108 | 118 | 109 | 73.2 | 98.8 | 99.2 | 108 | 113 | 112 | 111 | 107 | 110 | 116 | 102 | 79.3 | 93.8 | 107 | 103 | 103 | 109 | 105 | 110 | 101 | 107 | 101 | 85.9
CN(C)C(=O)C(CCN1CCC(O)(c2ccc(Cl)cc2)CC1)(c1ccccc1)c1ccccc1 |  |  |  |  |  |  |  |  |  |  |  | 122 | 123 | 133 | 122 | 129 | 125 | 127 | 116 | 127 | 107 | 69.2 |  |  |  |  |  |  |  |  |  |  | 
CC(C)Cc1ccc(C(C)C(=O)O)cc1 (stereo unspecified) | 86.7 | 91.6 | 83.9 | 83.2 | 88.3 | 89.8 | 79.1 | 81.7 | 80.9 | 84.5 | 95.6 | 86.1 | 86 | 92.1 | 90 | 91.9 | 98.2 | 92.8 | 95.4 | 96.6 | 92.4 | 95.4 | 90.4 | 90.9 | 84.5 | 85 | 87.5 | 89.2 | 81.8 | 90.3 | 82.1 | 77.6 | 81
CCOC(=O)/C=C/[C@H](C[C@@H]1CCNC1=O)NC(=O)[C@@H](CC(=O)[C@@H](NC(=O)c1cc(C)on1)C(C)C)Cc1ccc(F)cc1 | 112 | 106 | 118 | 80.2 | 111 | 119 | 115 | 128 | 119 | 124 | 118 | 122 | 115 | 121 | 87.7 | 130 | 127 | 126 | 117 | 121 | 122 | 117 | 114 | 122 | 130 | 76.8 | 135 | 135 | 134 | 136 | 121 | 120 | 119
Nc1ncnc2c1nc(Cl)n2[C@@H]1O[C@H](CO)[C@@H](O)[C@H]1O |  |  |  |  |  |  |  |  |  |  |  | 123 | 125 | 125 | 121 | 121 | 122 | 126 | 125 | 118 | 103 | 58.7 |  |  |  |  |  |  |  |  |  |  | 
CC(NCCc1ccc(O)cc1)C(O)c1ccc(O)cc1 (stereo unspecified) | 107 | 105 | 113 | 109 | 115 | 111 | 107 | 105 | 102 | 97 | 90.6 | 106 | 109 | 116 | 113 | 117 | 112 | 111 | 103 | 109 | 106 | 100 | 114 | 120 | 122 | 115 | 110 | 114 | 125 | 116 | 120 | 99 | 111
